From patent US8829014B2, “Thiazole and thiophene analogues, and their use in treating autoimmune diseases and cancers” (Board of Supervisors of Louisiana State University and …, priority 2006, dated 2014)
Marks after values point to notes of the source that are not given here.

What was measured:
Format in all cases: cell-based
FaDu cells = tested on: FaDu cells
From the text: […]. Values greater than 1.0 indicate activation, and values less than 1.0 indicate inhibition.) The compounds that inhibited luciferase translation might, potentially, act by generally inhibiting translation, by reducing cell numbers through inhibition of growth or by cell toxicity, or specifically by inhibiting highly cap-dependent translation. To analyze any general effects on cell viability, fourteen compounds were selected that altered luciferase activity (including a few that increased activity) to test for any effects on cell number. An MTT assay was used to monitor compounds for inhibition of cell growth and cell toxicity. The compounds were tested once in a six-point dose-response assay starting at 10 nM and increasing to 3.3 μM. FaDu cells were plated in a 96-well plate for 24 hr before addition of the compounds. Each compound was added in each of six concentrations (10 nM, 30 nM, 100 nM, 330 nM, 1000 nM, and 3300 nM), and each concentration was tested in triplicate. In addition, DMSO was used as a control. After incubating for 24 hr, the cell number was measured using the MTT assay.

[1] = tested on: human proximal tubule (HPT) cells; experiment: Ethidium homodimer (EthHD) uptake toxicity assay in HPT cells; settings: 10 μM, 48 h, relative to vehicle
Method: (§1) Additional compounds have also been tested for their ability to inhibit both TNF-α-induced NF-κB—expression and PMA-induced AP-1 expression. In both tests, the compound was added for 1 h, then the appropriate inducer was added, and luciferase activity was monitored 24 h later. Values were then normalized to the vehicle control, DMSO. Following the initial luciferase screens, studies were conducted to assess the cytotoxicity of the compounds in normal cells such as VSMC, HUVEC, or HPT cells. Human umbilical vein endothelial cells (HUVEC) represent the normal endothelium, vascular smooth muscle cells (VSMC) were represented by cells from the adult rat aorta, and human proximal tubule (HPT) cells represent the normal proximal tubule in vivo. These cells were grown to near confluency in multi-well plates, and were then treated for 48 h with either vehicle (0.1% DMSO) or 10 μM of each drug candidate. Following treatment, the media from the VSMC and HUVEC incubations were removed, and the amount of lactate dehydrogenase (LDH) released into the medium was determined with a commercial kit. LDH is normally confined to the cytosol, and its release represents “leakiness” of the plasma membrane. LDH activity was expressed as % increase over vehicle-treated cells. In another assay of viability, the treated VSMC and HUVEC were removed by trypsinization and treated with trypan blue, a dye that is taken up only by dead cells. The number of both live and dead cells was counted using an automated cell viability analyzer. The % decrease in numbers of viable cells was determined. Toxicity in the treated HPT cells was determined by the ethidium homodimer (EthHD) uptake assay. EthHD is a fluorescent dye that is excluded from live cells, but is taken up by cells that have lost permeability barriers. Inside the cell, EthHD produces a strong fluorescent signal, which is proportional to the number of dead cells. Results were expressed as a % increase in cell death over vehicle-treated cells. The lead compounds were also tested in two pairs of cell lines from either the skin or prostate, one tumorigenic and one non-tumorigenic, to test for any differences in toxicity or heightened sensitivity in the tumorigenic lines. The cells were treated for 48 h with vehicle (0.1% DMSO) or 10 μM of each drug candidate. Following treatment, the viability of the cells was determined by the MTT assay. In this assay, the MTT dye is converted only in viable cells by intracellular enzymes to a colorimetric product that is quantitated by a microplate reader.
(§2) For the results in Table 13, cells were grown to near confluency in multi-well plates, then treated for 48 h with either vehicle (0.1% DMSO) or 10 μM of each drug candidate. Following treatment, the media from the VSMC and HUVEC incubations were removed, and the amount of lactate dehydrogenase (LDH) released into the medium was determined with a commercial kit and expressed as a % increase over vehicle-treated cells. HPT toxicity was determined by the ethidium homodimer (EthHD) uptake assay. Inside the cell, EthHD produces a strong fluorescent signal, which is proportional to the amount of cell death, expressed as a % increase in cell death over vehicle-treated cells. The lead compounds were also tested in two pairs of cell lines from the skin or prostate, one tumorigenic and one non-tumorigenic, to test for differing toxicity or heightened sensitivity in the tumorigenic lines. The cells were treated for 48 h with vehicle (0.1% DMSO) or 10 μM of each drug candidate, and the viability of the cells was determined by the MTT assay, expressed as a % decrease in viability compared to vehicle-treated cells. The in vivo inflammation model measured the % inhibition of rat paw edema induced by carageenan injection.

[2] = MTT viability in skin cell line pair, tumorigenic and non-tumorigenic; settings: human
Method: as §1, §2

[3] = tested on: Human umbilical vein endothelial cells (HUVEC); experiment: Trypan blue viability count in HUVEC; settings: human, 48 h, 10 μM
Method: as §1

ARE from TNF-α = experiment: ARE screen: luciferase under post-transcriptional control of the ARE from TNF-α in RAW 264.7 cells; settings: six concentrations 10 nM-3300 nM, 24 hr (FIG. 10)
From the text: Development of ARE Screen: The regulation of TNF-α and other cytokines that are involved in inflammation and cancer progression occurs, in part, at the post-transcriptional level through an AU-rich element in the 3′ UTR called ARE. The ARE regulates both the stability and the translational efficiency of the mRNA and thus represents a potential target for novel anti-inflammatory molecules. The 3′ UTR from TNF-α, which contains the ARE, was cloned in the proper orientation and used to screen a compound library as reported in reference 55. Briefly, the 3′ UTR was cloned into pMS 110, and both the UTR and parental plasmids were stably transfected into RAW264.7 cells, a macrophage cell line. Individual clones were propagated and tested for luciferase activity. […] The UTR-containing clones responded to LPS by inducing luciferase expression similar to the endogenous increase in TNF-α following LPS stimulation. […] Thus, molecules identified with this screening assay are also useful as anti-cancer agents. By analogy, thalidomide, which has been reported to work in part through posttranscriptional regulation of TNF-α, has been approved for the treatment of multiple myeloma and is now in development for the treatment of cancers.
As in the eIF4E assay, AREs are responsible for post-transcriptional regulation of gene expression, influencing both translation and mRNA stability. […]

Compound: Bis-[2-(4-Chloro-phenylamino)-4-benzayl-thiazole-5-yl]-methanone [Example 134]
- inhibition of cell viability (FaDu cells): ~20%

Compound: CNc1nc(C)c(-c2nc3ccccc3c(=O)n2-c2ccc(Cl)cc2)s1 [Example 244, 2-(4-Methyl-2-methylamino-thiazol-5-yl)-3-(4-chloro-phenyl)-3H-quinazolin-4-one]
- Cell Death (EthHD) % Increase HPT [1]: 180# %
- cytotoxicity at 48 h, 10 μM ([2]; Viability (MTT) % Decrease HaCaT): 25%
- cytotoxicity at 48 h, 10 μM ([2]; Viability (MTT) % Decrease SRB12-p9): 28%
- Viable Cells % Decrease HUVEC [3]: 63# %

Compound: COc1ccc(-n2c(-c3sc(Nc4ccc(Cl)cc4)nc3-c3ccccc3)nc3ccccc3c2=O)cc1 [Example 225, 2-[2-(4-Chloro-phenylamino)-4-phenyl-thiazol-5-yl]-3-(4-methoxyphenyl)-3H-quinazolin-4-one]
- luciferase expression in the presence of ARE (ARE from TNF-α): substantial dose response
